Results: US20110212235A1, “ANTIMICROBIAL SALT SOLUTIONS FOR CHEESE PROCESSING APPLICATIONS” (priority 2006, published 2011)

Key:
L. monocytogenes [1] = test: L. monocytogenes kill in cold salt/acid/surfactant solutions; type: cell-based
Protocol: To study chilling brine application of the current embodiment, tests were run on 17% by weight solutions of formulas consisting of between 0.3% and 6.0% citric acid, between 50 and 500 ppm SLS, and between 94% and 99.7% sodium chloride. Test solutions were cooled to −7° C. and inoculated with several strains of L. monocytogenes.
An experiment was run to determine if solutions containing sodium chloride, sodium lauryl sulfate, and various acids would kill L. monocytogenes at cold temperatures. […] A 1.0 ml aliquot of this suspension was added to 100 ml of cold (−7° C.+2° C.) test solution and mixed well, providing an initial inoculum of 10^3 CFU/ml. The test solutions were incubated at −7° C.+/−2° C. for the duration of the experiment. At intervals of 0, 4, and 24 hours the L. monocytogenes populations in the test solutions were determined on Modified Oxford agar (MOX). MOX plates were incubated at 35° C.+/−2° C. for approximately 48 hours. Colonies were then counted and compared to the initial inoculum counts.
Each test solution was a 17% by weight solution of the listed formula prepared in soft water.
In another experiment, 17% by weight solutions of formulas containing various levels of sodium chloride, citric acid, and sodium lauryl sulfate were tested for effectiveness in killing L. monocytogenes at cold temperatures. The same test procedure was used as described above, except test solutions were plated on MOX with a Thin Agar Overlay of TSA (to aid in the recovery of injured cells).
In another experiment, two sets of solutions were tested. The first set (samples 1-12 in Table 10 below) was prepared in hard tap water and contained about 17.0% by mass of the formulation. These samples were inoculated with 10^3 CFU/ml L. monocytogenes by the same procedure as described above. A second set of samples was prepared from brine taken from a ready-to-eat meat processing operation. The recirculated brine had been used to chill packaged meat for one week. After a week of use the brine typically contains various types of aerobic psychotropic and mesophilic bacteria. This experiment was done in order to determine if the additives would kill the microorganisms naturally occurring in actual process brine from a plant. Since the spent chill brine samples already contained NaCl citric acid and/or SLS was added to provide an effective concentration of additive. One set of these samples (samples 13-17) were inoculated with 10^3 L. monocytogenes and the other set (samples 18-22) contained only the naturally occurring organisms in the spent chill brine. […] Other antimicrobials, such as quaternary ammonium compounds can lose significant activity in hard water, often necessitating further additives, such as EDTA as a chelating agent, to maintain antimicrobial activity.
Another set of experiments was done in order to determine the effectiveness of different acids and different types of surfactants in the antimicrobial salt formulations. In one experiment, test solutions containing ˜17% by weight of formulas containing various levels of sodium chloride, 100 ppm sodium lauryl sulfate, and various levels of different acids were tested for effectiveness in killing L. monocytogenes at cold temperatures. The same test procedure was used as described above (test solutions were plated on MOX TAL (Modified Oxford Medium with a Thin Agar Layer) with TSA). The controls were a solution of pure NaCl, a solution of a blend of 100 ppm SLS in NaCl, and a solution of a blend of 0.5% citric acid, 100 ppm SLS, and 99.5% NaCl.

[2] = pH and water activity of test solutions; type: physicochemical
L. monocytogenes [3] = test: L. monocytogenes challenge in hot dog plant chill brine at −20° C.; type: cell-based
Protocol: 1. Inoculate a separate tube containing approximately 10 ml of Brain Heart infusion (BHI) broth with the following L. monocytogenes strains: H2446 (CDC Global Standard), Scott A (serotype 4b), 12243 (serotype 1/2a), and two strains isolated from the environment of a cooked meat and poultry facility, designated WP1, and WP4. Incubate the tubes at least 5 days at 7-10° C.+/−2° C. 2. Assume the growth to be 10^9 cfu/ml. Serially dilute each culture in cold (˜7° C.). Butterfield's Phosphate Buffered Water (PBW) to 10^8 cfu/ml (1:10). Since five cultures of L. monocytogenes are being used as a cocktail, begin the dilution series using […] of each culture added to 99 ml of PBW. 3. Plate (−6, −7, −8) the diluted culture to get the starting count of the inoculum on Modified Oxford medium (MOX) using a thin agar overlay (TAL) technique (overlay with Trypticase Soy Agar [TSA]) to revive injured cells. 4. Add 1 ml of the diluted cocktail to 100 ml of cold test solution. 5. Mix the solutions well. 6. Determine the L. monocytogenes population at time 0 and 4 hours. Plate −1 (0.1 ml on 1 plate), −2, −3, and −4 dilutions using spread plates on MOX TAL with TSA. 7. Incubate the test solutions at test temperature for the duration of the experiment. 8. Incubate the MOX TAL with TSA plates at 20° C.+/−2° C. for 72+/−3 hours. Count representative colonies, which are black, and multiply by the dilution factor. […]

[4] = 17% by weight solution in soft water, −7° C., MOX
[5] = 17% by weight solution, −6.7° C., MOX with thin agar overlay
[6] = 17% by weight solution of the formula in soft water, Table 8

Row | Molecule | L. monocytogenes, 24 (L. monocytogenes [1]; 24, about 17.0% of formulation in hard tap water) | L. monocytogenes, 2 hr (L. monocytogenes [1]; 2 hr, about 17.0% of formulation in hard tap water) | L. monocytogenes, 4 hr (L. monocytogenes [1]; [4]) | L. monocytogenes, 4 hr (L. monocytogenes [1]; [5]) | L. monocytogenes, 24 hr (L. monocytogenes [1]; [4]) | L. monocytogenes, 24 hr (L. monocytogenes [1]; [5]) | L. monocytogenes, Time 0 (L. monocytogenes [1]; 17% by weight solution of the formula in soft water, −7° C., MOX) | L. monocytogenes, Time 0 (L. monocytogenes [1]; 17% by weight solution, −6.7° C., MOX with thin agar overlay of TSA) | L. monocytogenes, Time 0 (L. monocytogenes [1]; about 17.0% of formulation in hard tap water (27 gpg), inoculated 10^3 CFU/ml) | Water Activity [2, 6] | pH [2, 6] | pH ([2]; 17% by weight solution of the formula, Table 9) | effectiveness at lower concentration (L. monocytogenes [3]; 12.5 ppm in the hot dog plant brine) | kill of L. monocytogenes inoculum (L. monocytogenes [3]; 50 ppm, within 4 hours, −20° C., hot dog plant brine) | L. monocytogenes, Time 4 Hours (L. monocytogenes [1]; 4 hours, 17% by weight of formula of 99.7% sodium chloride, 0.3% citric acid, 500 ppm of listed surfactant, cold) | L. monocytogenes, Time 0 (L. monocytogenes [1]; 17% by weight of formula of 99.7% sodium chloride, 0.3% citric acid, 500 ppm of listed surfactant, cold)
1 | [Cl-].[Na+] [100% NaCl, sodium chloride, reference compound] | 1100 cfu/ml | 1100 cfu/ml | 1250 CFU/ml | ~6250 CFU/ml | 1170 CFU/ml | 2290 CFU/ml | 1550 CFU/ml | ~7000 CFU/ml | 760 cfu/ml | 0.88 | 7.88 | 7.66 | – | – | – | –
2 | alcohol ethoxylate | – | – | – | – | – | – | – | – | – | – | – | – | as effective as 50 ppm | ~5 log | 1 CFU/ml | 1080 CFU/ml
